The text below walks through data of PubChem BioAssay (NCI).

The structures appear in SMILES notation.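 In this assay, cells in 96-well plates receive the compound at five concentrations for 48 hours. Endpoints are linearly interpolated between the surrounding concentrations. GI50 is the concentration that inhibits growth by half. The concentration for full growth arrest is given as TGI.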

Among the test systems are DU-145 prostate; MALME-3M melanoma; OVCAR-5 ovarian; LOX IMVI melanoma; HCT-116 colon; COLO 205 colon; SF-295 CNS; HCC-2998 colon; DLD-1 colon; DMS 273 small cell lung.
Holding throughout (assay): DTP human tumour cell line panel, 48 h

By GI50 is commonly meant the concentration that inhibits growth by half. Usually TGI stands for the concentration giving total growth inhibition. A higher TGI goes with lower sensitivity of the cells. In the case of `O=C1NC(=O)C(c2cccc(Cl)c2)=C1Nc1ccc(Cl)c(C(=O)O)c1`, the GI50 in the assay on DU-145 prostate, with MALME-3M melanoma, in the assay with OVCAR-5 ovarian, in the assay with LOX IMVI melanoma, with HCT-116 colon and in the assay on COLO 205 colon was above 25 µM each time. Further, the GI50 in the assay with SF-295 CNS and in the assay with HCC-2998 colon was above 25 µM each time. The TGI in the assay with DU-145 prostate, with MALME-3M melanoma, in the assay with OVCAR-5 ovarian, in the assay with LOX IMVI melanoma, with HCT-116 colon and in the assay with COLO 205 colon was above 25 µM each time. The concentration for total growth inhibition (TGI) with SF-295 CNS and with HCC-2998 colon was above 25 µM throughout.
In the case of `CC(C)C[C@H](NC(=O)Cn1cccc(CNC(=O)c2ccccc2)c1=O)B(O)O`, the GI50 is 0.734 µM in the assay on DU-145 prostate; 0.16 µM in the assay on MALME-3M melanoma; 2.76 µM with OVCAR-5 ovarian; 0.244 µM with LOX IMVI melanoma; 0.337 µM in the assay on HCT-116 colon; 1.65 µM in the assay with COLO 205 colon. The figures for the GI50 in the assay on SF-295 CNS and in the assay with HCC-2998 colon were 0.442 µM and 0.893 µM, respectively. Besides, the TGI in the assay with DU-145 prostate was 45.1 µM; in the assay with MALME-3M melanoma it was 1.88 µM; in the assay with OVCAR-5 ovarian, 38.9 µM; in the assay on LOX IMVI melanoma it was 0.811 µM; with HCT-116 colon, 2.65 µM; in the assay with COLO 205 colon it was 97.8 µM. Besides, the total growth inhibition concentration (TGI) with SF-295 CNS is 2.24 µM; with HCC-2998 colon, 2.57 µM.
Consider `COc1cc(F)c(F)cc1C(=O)c1cnc(NC2CCN(S(C)(=O)=O)CC2)nc1N`, for which the GI50 is 5.66 µM in the assay on DU-145 prostate; 2.78 µM with MALME-3M melanoma; 2.62 µM in the assay on OVCAR-5 ovarian; 3.16 µM in the assay with LOX IMVI melanoma; 2.16 µM with HCT-116 colon; 2.42 µM with COLO 205 colon. Further, the GI50 was 2.9 µM in the assay on SF-295 CNS and 4.32 µM with HCC-2998 colon. Also, the total growth inhibition concentration (TGI) was above 21.6 µM in the assay with DU-145 prostate; 24.2 µM in the assay on MALME-3M melanoma; above 23.1 µM in the assay with OVCAR-5 ovarian; above 20.7 µM with LOX IMVI melanoma; above 25 µM in the assay on HCT-116 colon; 6.14 µM in the assay on COLO 205 colon. For the same compound, the concentration for total growth inhibition (TGI) in the assay with SF-295 CNS is 23.7 µM; in the assay on HCC-2998 colon it was above 25 µM.
For `COc1cc(Cc2c(C)cc(OC)c3[nH]c4ccccc4c23)cc2c1[nH]c1ccccc12`, the GI50 in the assay with MALME-3M melanoma was 4.44 µM; in the assay on LOX IMVI melanoma, 3.85 µM; in the assay on HCT-116 colon it was 9.18 µM; with COLO 205 colon it was 12 µM; with DLD-1 colon, 8.99 µM; in the assay with HCC-2998 colon, 5.43 µM. Further, in the assay on DMS 273 small cell lung, the GI50 was 7.64 µM. Besides, the TGI in the assay with MALME-3M melanoma was 12.4 µM; with OVCAR-5 ovarian, 12.5 µM; in the assay on LOX IMVI melanoma it was 8.6 µM; with HCT-116 colon it was above 25 µM; in the assay with COLO 205 colon, above 25 µM; in the assay with DLD-1 colon it was above 25 µM. The TGI with HCC-2998 colon amounted to 14.7 µM; in the assay with DMS 273 small cell lung, 21.6 µM.
Consider `Cc1ccccc1-n1c(=S)[nH]c2c(sc(=O)n2-c2ccccc2C)c1=O`, for which the TGI in the assay with MALME-3M melanoma, with OVCAR-5 ovarian, with HCT-116 colon, with COLO 205 colon, in the assay on DLD-1 colon and with SF-295 CNS was above 100 µM in each case. The concentration for total growth inhibition (TGI) in the assay with HCC-2998 colon and in the assay on DMS 273 small cell lung was above 100 µM in each case.
Turning to `O=C1C=CC(=O)c2c1ccc1c3ccccc3n(Cc3ccccc3)c21`, the concentration for total growth inhibition (TGI) with DU-145 prostate was above 100 µM; in the assay on MALME-3M melanoma, 30.8 µM; with OVCAR-5 ovarian it was 72.4 µM; in the assay with LOX IMVI melanoma it was 52.3 µM; in the assay with HCT-116 colon, 51.9 µM; with COLO 205 colon it was 38.9 µM. Moreover, the results for the TGI in the assay with SF-295 CNS and in the assay on HCC-2998 colon were above 100 µM and above 79.5 µM, respectively.
Consider `COc1ccc(N2C(=O)[C@@H](N=[N+]=[N-])[C@@H]2[C@H]2COC(C)(C)O2)cc1`, for which the TGI in the assay on MALME-3M melanoma, in the assay with OVCAR-5 ovarian, in the assay on HCT-116 colon, in the assay with COLO 205 colon, in the assay with SF-295 CNS and in the assay on HCC-2998 colon was above 100 µM in each case. In the assay on DMS 273 small cell lung, this compound returned a TGI above 100 µM.
With `CCC1CCCCN1CC(C(C)=O)C(c1ccccc1)c1c(O)c2ccccc2oc1=O` (centres undefined), the concentration for total growth inhibition (TGI) in the assay on MALME-3M melanoma, in the assay on OVCAR-5 ovarian, in the assay with LOX IMVI melanoma, with HCT-116 colon, with COLO 205 colon and in the assay on DLD-1 colon was above 100 µM throughout. Further, the TGI in the assay on SF-295 CNS and with DMS 273 small cell lung was above 100 µM in each case.
As to `O=C1OCC2=C1C(c1cccc(C(F)(F)F)c1)c1cc3c(cc1N2CCO)OCCO3` (centres undefined), the GI50 is 1.54 µM in the assay with DU-145 prostate; 2.86 µM in the assay with MALME-3M melanoma; 1.75 µM in the assay with OVCAR-5 ovarian; 1.66 µM in the assay with LOX IMVI melanoma; 1.42 µM with HCT-116 colon; 0.868 µM in the assay on COLO 205 colon. Also, the results for the GI50 with SF-295 CNS and with HCC-2998 colon were 0.895 µM and 1.1 µM, respectively. The TGI in the assay with DU-145 prostate was above 33.3 µM; in the assay on MALME-3M melanoma, above 33.3 µM; in the assay on OVCAR-5 ovarian, above 33.3 µM; with LOX IMVI melanoma, above 33.3 µM; in the assay with HCT-116 colon, above 33.3 µM; with COLO 205 colon, 2.48 µM. The TGI with SF-295 CNS and in the assay on HCC-2998 colon was above 33.3 µM each time.
Consider `CC(=O)c1c[nH]c2ccc(-c3ccnc(Nc4ccc(NC(=O)C5CCCC5)c(CN5CCOCC5)c4)n3)cc12`, for which the GI50 was 0.0362 µM in the assay with DU-145 prostate; 0.0431 µM with MALME-3M melanoma; 0.0296 µM in the assay with OVCAR-5 ovarian; 0.0132 µM in the assay with LOX IMVI melanoma; 0.0138 µM in the assay on HCT-116 colon; 0.0194 µM in the assay on COLO 205 colon. Also, the values for the GI50 in the assay on SF-295 CNS and with HCC-2998 colon were 0.0397 µM and 0.0444 µM, respectively. Besides, the concentration for total growth inhibition (TGI) in the assay with DU-145 prostate turned out to be 2.38 µM; in the assay on MALME-3M melanoma, 0.151 µM; in the assay on OVCAR-5 ovarian, 0.222 µM; with LOX IMVI melanoma it was 0.0479 µM; with HCT-116 colon, 0.953 µM; with COLO 205 colon it was 0.0679 µM. Moreover, the TGI with SF-295 CNS worked out at 0.611 µM; with HCC-2998 colon it was 0.6 µM.
For `CCOC(=O)[C@@]12C(C)=CC(=O)O[C@]1(C)C1C(=O)NC(=O)C12` (some centres undefined), the TGI in the assay on MALME-3M melanoma, in the assay with LOX IMVI melanoma, in the assay with HCT-116 colon, in the assay with COLO 205 colon, in the assay on DLD-1 colon and in the assay on SF-295 CNS was above 100 µM each time. For the same compound, the TGI with HCC-2998 colon and in the assay with DMS 273 small cell lung was above 100 µM in each case.
